Source: ChEMBL document CHEMBL4507291 (2021)

Tests used:
[1] = target: Proto-oncogene tyrosine-protein kinase ROS (Homo sapiens) (UniProt P08922)
[2] = target: Receptor-type tyrosine-protein kinase FLT3 (Homo sapiens) (UniProt P36888)
[3] = target: Non-receptor tyrosine-protein kinase TYK2 (Homo sapiens) (UniProt P29597)
[4] = target: Tyrosine-protein kinase Fes/Fps (Homo sapiens) (UniProt P07332)
[5] = target: Serine/threonine-protein kinase N2 (Homo sapiens) (UniProt Q16513)
[6] = target: Tyrosine-protein kinase Yes (Homo sapiens) (UniProt P07947)
[7] = target: Cyclin-dependent kinase 13 (Homo sapiens) (UniProt Q14004)
[8] = target: Testis-specific serine/threonine-protein kinase 1 (Homo sapiens) (UniProt Q9BXA7)
[9] = target: Proto-oncogene tyrosine-protein kinase receptor Ret (Homo sapiens) (UniProt P07949)
[10] = system: ALK tyrosine kinase receptor (Homo sapiens), Q9UM73 [C1156Y]
[11] = target: Serine/threonine-protein kinase 16 (Homo sapiens) (UniProt O75716)
[12] = system: Fibroblast growth factor receptor 3 (Homo sapiens), P22607 [G697C]
[13] = target: Receptor tyrosine-protein kinase erbB-3 (Homo sapiens) (UniProt P21860)
[14] = system: Proto-oncogene tyrosine-protein kinase receptor Ret (Homo sapiens), P07949 [V804L]
[15] = target: Peripheral plasma membrane protein CASK (Homo sapiens) (UniProt O14936)
[16] = target: Mitogen-activated protein kinase 9 (Homo sapiens) (UniProt P45984)
[17] = target: Serine/threonine-protein kinase ULK3 (Homo sapiens) (UniProt Q6PHR2)
[18] = target: Focal adhesion kinase 1 (Homo sapiens) (UniProt Q05397)
[19] = system: Tyrosine-protein kinase ABL1 (Homo sapiens), P00519 [M351T]
[20] = target: Cyclin-dependent kinase-like 1 (Homo sapiens) (UniProt Q00532)
[21] = target: LIM domain kinase 1 (Homo sapiens) (UniProt P53667)
[22] = target: Serine/threonine-protein kinase PAK 2 (Homo sapiens) (UniProt Q13177)
[23] = target: Serine/threonine-protein kinase pim-1 (Homo sapiens) (UniProt P11309)
[24] = target: Serine/threonine-protein kinase Chk2 (Homo sapiens) (UniProt O96017)
[25] = target: Bone morphogenetic protein receptor type-2 (Homo sapiens) (UniProt Q13873)
[26] = target: Fibroblast growth factor receptor 4 (Homo sapiens) (UniProt P22455)
[27] = target: T1, Mitogen-activated protein kinase kinase kinase 7 (Homo sapiens) (UniProt O43318)
T1 sequence (whole entry): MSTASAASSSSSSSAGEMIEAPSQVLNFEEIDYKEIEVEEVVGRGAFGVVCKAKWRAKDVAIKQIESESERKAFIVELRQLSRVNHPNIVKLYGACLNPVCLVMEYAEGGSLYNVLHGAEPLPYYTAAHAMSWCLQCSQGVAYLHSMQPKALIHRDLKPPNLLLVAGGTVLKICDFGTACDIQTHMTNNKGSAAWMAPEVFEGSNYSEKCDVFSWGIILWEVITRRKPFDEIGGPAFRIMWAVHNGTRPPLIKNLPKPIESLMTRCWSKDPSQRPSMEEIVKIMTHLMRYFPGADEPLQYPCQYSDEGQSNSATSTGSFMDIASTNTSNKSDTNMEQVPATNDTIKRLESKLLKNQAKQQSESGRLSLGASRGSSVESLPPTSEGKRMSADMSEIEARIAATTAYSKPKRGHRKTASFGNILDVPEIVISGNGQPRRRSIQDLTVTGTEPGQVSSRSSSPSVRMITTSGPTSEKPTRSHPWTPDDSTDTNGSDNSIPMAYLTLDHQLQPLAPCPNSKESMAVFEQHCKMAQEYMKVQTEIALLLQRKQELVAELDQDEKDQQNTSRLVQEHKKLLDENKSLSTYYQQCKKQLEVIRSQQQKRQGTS

[28] = target: Cyclin-dependent kinase 2 homolog (Plasmodium falciparum (isolate 3D7)) (UniProt P61075)
[29] = target: MAP kinase-interacting serine/threonine-protein kinase 2 (Homo sapiens) (UniProt Q9HBH9)
[30] = system: Receptor-type tyrosine-protein kinase FLT3 (Homo sapiens), P36888 [K663Q]
[31] = target: Microtubule-associated serine/threonine-protein kinase 1 (Homo sapiens) (UniProt Q9Y2H9)
[32] = target: Eukaryotic translation initiation factor 2-alpha kinase 1 (Homo sapiens) (UniProt Q9BQI3)
[33] = target: Vascular endothelial growth factor receptor 2 (Homo sapiens) (UniProt P35968)
[34] = target: Aurora kinase B (Homo sapiens) (UniProt Q96GD4)
[35] = target: Proto-oncogene tyrosine-protein kinase Src (Homo sapiens) (UniProt P12931)
[36] = Compound concentration 1000.0 nM
[37] = Compound concentration 100.0 nM

Measured: residual activity

Chain of Serine/threonine-protein kinase PAK 2 (Homo sapiens) (Q13177 whole entry): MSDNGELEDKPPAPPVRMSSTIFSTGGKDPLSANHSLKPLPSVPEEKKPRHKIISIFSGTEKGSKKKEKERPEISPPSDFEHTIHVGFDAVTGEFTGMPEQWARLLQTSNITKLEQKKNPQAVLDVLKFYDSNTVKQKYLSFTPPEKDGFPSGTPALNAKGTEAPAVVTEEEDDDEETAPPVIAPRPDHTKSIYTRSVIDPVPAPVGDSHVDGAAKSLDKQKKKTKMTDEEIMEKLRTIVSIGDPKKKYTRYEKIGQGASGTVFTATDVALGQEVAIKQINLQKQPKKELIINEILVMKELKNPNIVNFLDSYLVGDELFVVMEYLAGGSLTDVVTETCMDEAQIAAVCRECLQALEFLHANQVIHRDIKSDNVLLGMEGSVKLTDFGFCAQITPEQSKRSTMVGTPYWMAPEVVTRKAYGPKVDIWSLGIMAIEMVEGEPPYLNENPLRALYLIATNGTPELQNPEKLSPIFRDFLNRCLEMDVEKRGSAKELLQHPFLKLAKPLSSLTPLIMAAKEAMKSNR
Chain of Receptor tyrosine-protein kinase erbB-3 (Homo sapiens) (P21860 whole entry): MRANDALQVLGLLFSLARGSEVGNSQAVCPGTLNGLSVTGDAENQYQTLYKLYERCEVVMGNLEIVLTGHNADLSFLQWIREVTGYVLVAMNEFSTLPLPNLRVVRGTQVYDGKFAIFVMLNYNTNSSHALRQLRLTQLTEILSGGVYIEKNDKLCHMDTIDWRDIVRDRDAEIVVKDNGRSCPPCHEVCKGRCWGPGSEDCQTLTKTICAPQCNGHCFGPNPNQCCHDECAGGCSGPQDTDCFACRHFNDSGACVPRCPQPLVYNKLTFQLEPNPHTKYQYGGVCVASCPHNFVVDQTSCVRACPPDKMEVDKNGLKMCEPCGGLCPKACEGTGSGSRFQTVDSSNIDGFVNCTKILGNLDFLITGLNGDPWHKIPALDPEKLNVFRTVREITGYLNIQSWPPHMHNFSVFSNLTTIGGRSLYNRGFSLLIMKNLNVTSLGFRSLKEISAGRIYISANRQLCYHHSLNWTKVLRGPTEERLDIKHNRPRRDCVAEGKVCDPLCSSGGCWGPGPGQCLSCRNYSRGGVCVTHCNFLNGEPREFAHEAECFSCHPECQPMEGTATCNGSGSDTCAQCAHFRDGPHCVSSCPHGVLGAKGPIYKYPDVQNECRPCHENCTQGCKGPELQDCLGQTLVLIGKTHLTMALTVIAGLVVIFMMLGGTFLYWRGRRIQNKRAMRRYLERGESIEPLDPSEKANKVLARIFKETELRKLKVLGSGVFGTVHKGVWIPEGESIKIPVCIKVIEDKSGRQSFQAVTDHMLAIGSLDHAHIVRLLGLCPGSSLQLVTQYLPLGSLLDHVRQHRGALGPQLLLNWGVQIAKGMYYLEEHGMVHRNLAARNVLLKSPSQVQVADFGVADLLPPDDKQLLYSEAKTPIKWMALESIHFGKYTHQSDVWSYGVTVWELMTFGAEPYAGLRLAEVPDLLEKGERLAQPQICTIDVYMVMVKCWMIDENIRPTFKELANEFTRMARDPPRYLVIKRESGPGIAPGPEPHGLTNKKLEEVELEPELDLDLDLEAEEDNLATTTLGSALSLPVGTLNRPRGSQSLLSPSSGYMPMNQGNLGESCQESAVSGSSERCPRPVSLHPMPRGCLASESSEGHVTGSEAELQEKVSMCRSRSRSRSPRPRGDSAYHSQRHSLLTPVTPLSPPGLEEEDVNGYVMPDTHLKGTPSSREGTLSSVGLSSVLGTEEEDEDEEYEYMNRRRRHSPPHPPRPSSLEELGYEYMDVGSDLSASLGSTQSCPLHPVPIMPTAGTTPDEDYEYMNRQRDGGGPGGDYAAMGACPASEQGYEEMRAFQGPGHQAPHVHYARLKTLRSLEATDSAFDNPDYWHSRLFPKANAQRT
Chain of Tyrosine-protein kinase Yes (Homo sapiens) (P07947 2-543 limits assumed): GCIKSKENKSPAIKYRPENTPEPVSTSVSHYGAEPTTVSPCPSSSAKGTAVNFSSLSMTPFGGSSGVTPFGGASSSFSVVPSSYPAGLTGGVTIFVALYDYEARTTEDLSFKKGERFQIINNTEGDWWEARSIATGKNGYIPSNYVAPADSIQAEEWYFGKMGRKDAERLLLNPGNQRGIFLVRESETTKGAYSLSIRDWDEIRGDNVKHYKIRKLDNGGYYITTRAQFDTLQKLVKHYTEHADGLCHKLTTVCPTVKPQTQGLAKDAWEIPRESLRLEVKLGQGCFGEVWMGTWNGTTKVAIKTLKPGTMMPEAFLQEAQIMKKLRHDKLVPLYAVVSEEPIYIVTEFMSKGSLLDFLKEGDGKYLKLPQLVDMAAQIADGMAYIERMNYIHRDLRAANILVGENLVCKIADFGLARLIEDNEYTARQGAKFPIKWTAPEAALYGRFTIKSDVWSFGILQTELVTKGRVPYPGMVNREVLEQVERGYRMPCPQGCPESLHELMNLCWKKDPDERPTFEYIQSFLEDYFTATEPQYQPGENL
Chain of Proto-oncogene tyrosine-protein kinase receptor Ret (Homo sapiens) (P07949 whole entry): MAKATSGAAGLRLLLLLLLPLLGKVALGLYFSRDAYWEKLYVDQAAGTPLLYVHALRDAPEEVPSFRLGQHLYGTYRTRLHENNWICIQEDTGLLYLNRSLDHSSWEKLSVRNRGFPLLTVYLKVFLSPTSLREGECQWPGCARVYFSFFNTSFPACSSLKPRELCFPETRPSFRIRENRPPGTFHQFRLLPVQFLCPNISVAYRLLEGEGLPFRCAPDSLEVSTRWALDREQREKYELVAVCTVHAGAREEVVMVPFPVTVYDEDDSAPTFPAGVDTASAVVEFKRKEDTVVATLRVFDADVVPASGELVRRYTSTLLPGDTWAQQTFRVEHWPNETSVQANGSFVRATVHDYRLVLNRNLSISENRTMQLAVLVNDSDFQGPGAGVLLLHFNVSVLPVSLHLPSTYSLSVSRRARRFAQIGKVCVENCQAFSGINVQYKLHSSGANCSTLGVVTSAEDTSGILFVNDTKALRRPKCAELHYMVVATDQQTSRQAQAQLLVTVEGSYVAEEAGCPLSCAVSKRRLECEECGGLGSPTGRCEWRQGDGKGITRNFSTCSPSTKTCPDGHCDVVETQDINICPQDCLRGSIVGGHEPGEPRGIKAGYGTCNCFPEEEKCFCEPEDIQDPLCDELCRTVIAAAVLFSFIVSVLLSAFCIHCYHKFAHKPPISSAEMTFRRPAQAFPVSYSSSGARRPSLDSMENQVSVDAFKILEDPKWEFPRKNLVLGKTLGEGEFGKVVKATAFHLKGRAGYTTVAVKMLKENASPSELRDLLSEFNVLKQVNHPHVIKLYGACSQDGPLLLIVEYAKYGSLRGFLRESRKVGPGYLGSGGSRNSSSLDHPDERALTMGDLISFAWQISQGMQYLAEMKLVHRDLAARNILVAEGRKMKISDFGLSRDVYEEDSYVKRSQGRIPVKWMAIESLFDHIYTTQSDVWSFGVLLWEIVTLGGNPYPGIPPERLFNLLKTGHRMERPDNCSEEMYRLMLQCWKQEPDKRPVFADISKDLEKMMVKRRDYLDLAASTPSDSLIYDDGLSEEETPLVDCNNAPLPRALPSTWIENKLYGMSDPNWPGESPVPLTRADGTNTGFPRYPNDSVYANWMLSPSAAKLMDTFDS
Chain of Cyclin-dependent kinase 13 (Homo sapiens) (Q14004 whole entry, looked up): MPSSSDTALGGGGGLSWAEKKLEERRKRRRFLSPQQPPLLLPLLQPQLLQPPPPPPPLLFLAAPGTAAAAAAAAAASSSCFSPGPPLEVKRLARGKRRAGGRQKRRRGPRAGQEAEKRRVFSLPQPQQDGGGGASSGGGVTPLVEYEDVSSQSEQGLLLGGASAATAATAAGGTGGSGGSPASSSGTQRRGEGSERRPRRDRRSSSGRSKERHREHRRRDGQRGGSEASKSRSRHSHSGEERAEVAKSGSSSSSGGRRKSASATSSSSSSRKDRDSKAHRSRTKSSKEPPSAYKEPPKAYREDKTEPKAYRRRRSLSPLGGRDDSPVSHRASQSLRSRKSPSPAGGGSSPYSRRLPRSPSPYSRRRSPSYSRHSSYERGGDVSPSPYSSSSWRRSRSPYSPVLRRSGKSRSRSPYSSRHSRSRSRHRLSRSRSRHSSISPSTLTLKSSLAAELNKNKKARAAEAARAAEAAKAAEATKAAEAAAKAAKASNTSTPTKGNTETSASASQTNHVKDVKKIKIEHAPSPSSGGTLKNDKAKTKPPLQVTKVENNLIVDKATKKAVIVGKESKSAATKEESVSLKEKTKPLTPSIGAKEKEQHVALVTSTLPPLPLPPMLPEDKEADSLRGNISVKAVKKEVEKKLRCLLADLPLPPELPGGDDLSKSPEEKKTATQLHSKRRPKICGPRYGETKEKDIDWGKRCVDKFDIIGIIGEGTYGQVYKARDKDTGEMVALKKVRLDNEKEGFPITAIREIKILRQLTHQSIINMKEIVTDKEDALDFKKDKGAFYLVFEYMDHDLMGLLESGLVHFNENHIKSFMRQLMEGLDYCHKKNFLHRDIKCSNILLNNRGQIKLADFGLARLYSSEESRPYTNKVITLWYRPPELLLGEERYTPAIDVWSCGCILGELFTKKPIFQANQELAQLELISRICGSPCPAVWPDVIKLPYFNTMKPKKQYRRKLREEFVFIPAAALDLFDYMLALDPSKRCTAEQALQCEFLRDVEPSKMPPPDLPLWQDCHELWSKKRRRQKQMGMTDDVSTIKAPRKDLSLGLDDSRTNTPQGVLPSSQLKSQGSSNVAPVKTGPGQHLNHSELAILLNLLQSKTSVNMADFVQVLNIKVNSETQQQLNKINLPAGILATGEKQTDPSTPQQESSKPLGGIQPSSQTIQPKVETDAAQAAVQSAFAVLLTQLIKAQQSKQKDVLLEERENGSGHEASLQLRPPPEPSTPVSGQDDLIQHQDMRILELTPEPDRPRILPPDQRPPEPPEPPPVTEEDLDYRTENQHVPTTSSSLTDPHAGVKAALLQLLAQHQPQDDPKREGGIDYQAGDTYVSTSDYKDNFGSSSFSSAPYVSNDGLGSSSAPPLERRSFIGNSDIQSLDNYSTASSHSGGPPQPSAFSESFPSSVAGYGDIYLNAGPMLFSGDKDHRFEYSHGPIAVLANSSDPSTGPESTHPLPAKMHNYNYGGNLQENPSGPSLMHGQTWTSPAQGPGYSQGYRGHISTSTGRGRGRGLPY
Chain of Proto-oncogene tyrosine-protein kinase receptor Ret (Homo sapiens), P07949 [V804L] (P07949 whole entry V804L): as the sequence (P07949 whole entry) above, with V804L counted along it

C[C@@H]1CN(c2cc(-c3nn(C)c4ccc(OC5(C)CC5)cc34)ncn2)C[C@H](C)O1 [MLi-2-NC]
inactive: [1]; [36] 100% | [2]; [36] 96% | [3]; [36] 82% | [4]; [36] 93% | [5]; [36] 100% | [6]; [36] 98% | [7]; [36] 86% | [8]; [36] 99% | [9]; [36] 96% | [10]; [36] 82% | [11]; [36] 100% | [12]; [36] 100% | [13]; [36] 57% | [14]; [36] 72% | [15]; [36] 93% | [16]; [36] 78% | [17]; [36] 67% | [18]; [36] 95% | [19]; [36] 91% | [20]; [36] 89% | [21]; [36] 95% | [22]; [36] 90% | [23]; [36] 77% | [24]; [36] 97% | [25]; [36] 54% | [26]; [36] 100% | [27]; [36] 89% | [28]; [36] 94% | [29]; [36] 67% | [30]; [36] 100% | [31]; [36] 100% | [32]; [36] 60% | [33]; [36] 75% | [34]; [36] 94% | [35]; [36] 100%

C[C@@H]1CN(c2cc(-c3n[nH]c4ccc(OC5(C)CC5)cc34)ncn2)C[C@H](C)O1 [MLi-2]
inactive: [1]; [37] 100% | [2]; [37] 99% | [3]; [37] 76% | [4]; [37] 87% | [5]; [37] 89% | [6]; [37] 80% | [7]; [37] 84% | [8]; [37] 72% | [9]; [37] 100% | [10]; [37] 89% | [11]; [37] 100% | [12]; [37] 86% | [13]; [37] 100% | [14]; [37] 98% | [15]; [37] 59% | [16]; [37] 72% | [17]; [37] 78% | [18]; [37] 81% | [19]; [37] 95% | [20]; [37] 89% | [21]; [37] 86% | [22]; [37] 95% | [23]; [37] 100% | [24]; [37] 68% | [25]; [37] 75% | [26]; [37] 100% | [27]; [37] 70% | [28]; [37] 80% | [29]; [37] 74% | [30]; [37] 100% | [31]; [37] 70% | [32]; [37] 100% | [33]; [37] 82% | [34]; [37] 73% | [35]; [37] 81%
